Results from patent US20080027088A1, “Imidazole-Based Hmg-Coa Reductase Inhibitors” (Warner-Lambert Company, LLC, priority 2004, published 2008).

System: ApoE KO mice fed a Western diet
Experiment: Plasma and liver sphingomyelin by LC/MS, 4 weeks
Assay type: in vivo
Experimental: Animal experiments—Male C57BI/6J and ApoE KO mice on C57BI/6J background were obtained from the Jackson Laboratory (Bar Harbor, Me.) or Taconic (Germantown, N.Y.) (Plaque formation in ApoE KO mice is lipid-driven (A. S. Plump et al., Cell. 1992;71 (2):343-53)). Myriocin was mixed with Western diet containing 0.21% cholesterol and 21% fat. 8-12-week-old mice received 0.3 mg myriocin/kg/day for 12 weeks (Table 1). 10-12 week-old ApoE KO mice (n=8) were pre-fed a western diet for 2 weeks and mice received various concentrations of myriocin for 4 weeks in diet admix. Control groups consisted of ApoE KO mice fed normal chow or Western diet without myriocin, and normal chow-fed C57BI/6J mice. Body weight and chow feeding was measured every week to examine the food consumption. For the femoral artery cuff model, 8-10 week-old male ApoE KO mice were anethetized and the right femoral artery was dissected from its surroundings. […]
Analysis of Sphingolipids and Phospholipids by LC/MS and HPLC—Total lipids were extracted by the modified method of Bligh-Dyer extraction (E. G. Bligh and W. J. Dyer, Can. J. Med. Sci. 1959;37:911-917; and D. K. Perry, A. Bielawska and Y. A. Hannun, Methods Enzymol. 2000;312:22-31). A Micromass (Waters Corp., Milford, Mass.) Quattro Ultima tandem quadrupole mass spectrometer with a standard Z-spray™ ion source, set to electrospray positive ionization mode, with MassLynx™ version 3.5 operating software, was used for all quantitative determinations. […] The following ion transitions were used for quantification: sphingomyelin (704→184 m/z), sphinganine (302→284 m/z), ceramide (566→264 m/z) and psychosine (462→282 m/z) as an internal standard. […]
The liquid chromatography system was composed of twin Shimadzu (Columbia, Md.) LC-10ADvp HPLC pumps with a SCL-10Avp controller (flow rate 0.2 mL/minute), and a LEAP Technologies (Carrboro, N.C.) CTC PAL autosampler. For the quantitative method, the analytical column was a Phenomenex (Torrance, Calif.) Polar-RP (2.0×150 mm, 4 μm) with a MetaChem (Torrance, Calif.) MetaGuard Polaris C8 2.0 mm direct connect (5 μm) guard column. […]

Question: Which “liver SM levels decreased, maximum” value (0.1 mg/kg/day) does the source give for `CCCCCCC(=O)CCCCCC/C=C/C[C@@H](O)[C@H](O)[C@@](N)(CO)C(=O)O` [myriocin] here?
Answer: The value was 46%.

Question: And the “liver SM levels” value (1 mg/kg/day)?
Answer: Its value is “comparable to the non-treated group”.

Question: And the “plasma SM levels lowered (LC/MS)” value (1 mg/kg/day)?
Answer: Its value is 70%.
